Source: patent US7273877B2, “5-substituted-4-[(substituted phenyl) amino]-2-pyridone derivatives” (Warner-Lambert Company, LLC, priority 2003, dated 2007)

Columns and labels:
[1] = system: phosphorylation of MAP kinase (ERK) in murine colon 26 (C26) carcinoma cells; assay: Cellular inhibition of ERK phosphorylation, C26ELSA (pERK ELISA format); assay type: cell-based; details: Mus musculus, 1 h, C26 cells treated with test compound for one hour at 37° C.
Procedure: (§1) MEK inhibitors were evaluated by determining their ability to inhibit phosphorylation of MAP kinase (ERK) in murine colon 26 (C26) carcinoma cells. Since ERK1 and ERK2 represent the only known substrates for MEK1and MEK2, the measurement of inhibition of ERK phosphorylation in cells provides direct read out of cellular MEK inhibition by the compounds of the invention. Detection of phosphorylation of ERK was carried out either by Western blot or ELISA format. Briefly, the assays involve treatment of exponentially growing C26 cells with varying concentrations of the test compound (or vehicle control) for one hour at 37° C. For Western blot assay, cells were rinsed free of compound/vehicle and lysed in a solution containing 70 mM NaCl, 50 mM glycerol phosphate, 10 mM HEPES, pH 7.4, 1% Triton X-100, 1 mM Na3VO4, 100 μM PMSF, 10 μM leupeptin and 10 μM pepstatin. Supernatants were then subjected to gel electrophoresis and hybridized to a primary antibody recognizing dually phosphorylated ERK1 and ERK2. To evaluate total MAPK levels, blots were subsequently ‘stripped’ and re-probed with a 1:1 mixture of polyclonal antibodies recognizing unphosphorylated ERK1 and ERK2. For pERK ELISA assay, pERK TiterZyme Enzyme immunometric Assay kits were acquired from Assay Designs, Inc (Ann Arbor, Mich.). Briefly, cells were harvested in lysis solution containing 50 mM β-glycerophosphate, 10 mM HEPES, ph7.4, 70 mM NaCl, 2 mM EDTA and 1% SDS and protein lysates were diluted 1:15 with supplied Assay buffer prior to the execution of the assay. The subsequent steps were carried out essentially as recommended by the manufacturer.
(§2) The inhibition data generated by the above protocols is disclosed in Table I. If several concentrations of inhibitor were tested, IC50 values (the concentration which gives 50% inhibition) were determined graphically from the dose response curve for % inhibition. Otherwise, percent inhibitions at measured concentrations are reported.

[2] = system: phosphorylation of MAP kinase (ERK) in murine colon 26 (C26) carcinoma cells; assay: Cellular inhibition of ERK phosphorylation, C26CPA1; assay type: cell-based; details: Mus musculus, 1 h; C26 cells treated with test compound for one hour at 37° C.
Procedure: as §1, §2

| SMILES | IC50 [1] [µM] | IC50 [2] [µM] | melting point [°C] |
| --- | --- | --- | --- |
| Cn1cc(C(=O)NCCCO)c(Nc2ccc(I)cc2F)cc1=O [Example 5, 4-(2-Fluoro-4-iodoanilino)-N-(3-hydroxypropyl)-1-methyl-6-oxo-1,6-dihydro-3-pyridinecarboxamide] | – | 0.06 | 81 to 86 |
| O=C(NCCO)c1c[nH]c(=O)cc1Nc1ccc(I)cc1F [Example 11, 4-(2-Fluoro-4-iodoanilino)-N-(2-hydroxyethyl)-6-oxo-1,6-dihydro-3-pyridinecarboxamide] | ≥ 5 | – | 254 to 256 |
| O=C(NCCCO)c1c[nH]c(=O)cc1Nc1ccc(I)cc1F [Example 14, 4-(2-Fluoro-4-iodoanilino)-N-(3-hydroxypropyl)-6-oxo-1,6-dihydro-3-pyridinecarboxamide] | ≥ 5 | – | 253 to 255 |
| O=C(O)Cn1cc(C(=O)NCCCO)c(Nc2ccc(I)cc2F)cc1=O [Example 24, (4-(2-Fluoro-4-iodoanilino)-5-{[(3-hydroxypropyl)amino]carbonyl}-2-oxo-1(2H)-pyridinyl)acetic acid] | ≥ 5 | – | 199 to 202 |
| NC(=O)c1cn(CC(O)CO)c(=O)cc1Nc1ccc(I)cc1F (stereo not shown) [Example 31, 1-(2,3-Dihydroxypropyl)-4-(2-fluoro-4-iodoanilino)-6-oxo-1,6-dihydro-3-pyridinecarboxamide] | – | 1.41 | 210 to 213 |
| Cc1ccc(Nc2cc(=O)n(C)cc2C(N)=O)c(F)c1 [Example 37, 4-(2-Fluoro-4-methylanilino)-1-methyl-6-oxo-1,6-dihydro-3-pyridinecarboxamide] | ≥ 5 | – | 285 to 288 |
| Cn1cc(C(=O)NC(CO)(CO)CO)c(Nc2ccc(I)cc2F)cc1=O [Example 47, 4-(2-Fluoro-4-iodoanilino)-N-[2-hydroxy-1,1-bis(hydroxymethyl)ethyl]-1-methyl-6-oxo-1,6-dihydro-3-pyridinecarboxamide] | ≥ 5 | – | 100 to 105 |
| Cn1cc(C(=O)OCC(N)(CO)CO)c(Nc2ccc(I)cc2F)cc1=O [Example 48, 2-Amino-3-hydroxy-2-(hydroxymethyl)propyl-4-(2-fluoro-4-iodoanilino)-1-methyl-6-oxo-1,6-dihydro-3-pyridinecarboxylate] | ≥ 5 | – | 117 to 122 |
| CNC(=O)c1cn(C)c(=O)cc1Nc1ccc(I)cc1F [Example 51, 4-(2-Fluoro-4-iodoanilino)-N,1-dimethyl-6-oxo-1,6-dihydro-3-pyridinecarboxamide] | ≥ 5 | – | 252 to 254 |
| Cn1cc(C(N)=O)c(Nc2ccc(Cl)c(Cl)c2)cc1=O [Example 56, 4-(3,4-Dichloro-phenylamino)-1-methyl-6-oxo-1,6-dihydro-pyridine-3-carboxylic acid amide] | – | – | > 250 |
| CCOC(=O)c1cn(C)c(=O)cc1Nc1ccc(C)c(C)c1 [Example 57, 4-(3,4-Dimethyl-phenylamino)-1-methyl-6-oxo-1,6-dihydro-pyridine-3-carboxylic acid ethyl ester] | ≥ 5 | – | 153 to 154 |
| Cc1ccc(Nc2cc(=O)n(C)cc2C(=O)O)cc1C [Example 63, 4-(3,4-Dimethyl-phenylamino)-1-methyl-6-oxo-1,6-dihydro-pyridine-3-carboxylic acid] | – | – | 238 to 242 |
| Cn1cc(C(=O)O)c(Nc2ccc3c(c2)CCC3)cc1=O [Example 64, 4-(Indan-5-ylamino)-1-methyl-6-oxo-1,6-dihydro-pyridine-3-carboxylic acid] | – | – | 218 to 220 |
| Cn1cc(C(=O)O)c(Nc2ccc(Cl)c(Cl)c2Cl)cc1=O [Example 65, 1-Methyl-6-oxo-4-(2,3,4-trichloro-phenylamino)-1,6-dihydro-pyridine-3-carboxylic acid] | – | – | 258 to 261 |
| Cn1cc(C(N)=O)c(Nc2ccc(Cl)c(Cl)c2Cl)cc1=O [Example 67, 1-Methyl-6-oxo-4-(2,3,4-trichloro-phenylamino)-1,6-dihydro-pyridine-3-carboxylic acid amide] | – | 0.076 | – |
| CSc1ccc(Nc2cc(=O)n(C)cc2C(=O)NC(CO)CO)c(F)c1 [Example 89, 4-(2-Fluoro-4-methylsulfoanyl-phenylamino)-1-methyl-6-oxo-1,6, dihydro-pyridine-3-carboxylic acid (2-hydroxy-1-hydroxymethyl-ethyl)-amide] | – | 2.81 | – |
| CSc1ccc(Nc2cc(=O)n(C)cc2-c2nnc(NCCO)o2)c(F)c1 [Example 90, 4-(2-Fluoro-4-methylsulfanyl-phenylamino)-5-[5-(2-hydroxy-ethylamino)[1,3,4]oxadiazol-2-yl]-1-methyl-1H-pyridin-2-one] | > 5 | – | – |

The next lines start with the values.

| IC50 [1] [µM] | IC50 [2] [µM] | melting point [°C] | SMILES |
| --- | --- | --- | --- |
| 0.0049 | 0.0438 | 148 to 151 | Cn1cc(C(=O)NOCCO)c(Nc2ccc(I)cc2F)cc1=O [Example 1, 4-(2-Fluoro-4-iodoanilino)-N-(2-hydroxyethoxy)-1-methyl-6-oxo-1,6-dihydro-3-pyridinecarboxamide] |
| ≥ 5 | – | 177 to 179 | Cn1cc(C(=O)NCCO)c(Nc2ccc(CCCO)cc2F)cc1=O [Example 7, 4-[2-Fluoro-4-(3-hydroxypropyl)anilino]-N-(2-hydroxyethyl)-1-methyl-6-oxo-1,6-dihydro-3-pyridinecarboxamide] |
| ≥ 5 | – | 161 to 164 | Cn1cc(C(=O)NCCCO)c(Nc2ccc(CCCO)cc2F)cc1=O [Example 9, 4-[2-Fluoro-4-(3-hydroxypropyl)anilino]-N-(3-hydroxypropyl)-1-methyl-6-oxo-1,6-dihydro-3-pyridinecarboxamide] |
| 0.0044 | – | – | Cn1cc(C(N)=O)c(Nc2ccc(I)cc2F)cc1=O [Example 10, 4-(2-Fluoro-4-iodoanilino)-1-methyl-6-oxo-1,6-dihydro-3-pyridinecarboxamide] |
| 0.021 | – | 269 to 272 | C#Cc1ccc(Nc2cc(=O)n(C)cc2C(N)=O)c(F)c1 [Example 17, 4-(4-Ethynyl-2-fluoroanilino)-1-methyl-6-oxo-1,6-dihydro-3-pyridinecarboxamide] |
| 0.11 | – | 320 to 325 | NC(=O)c1c[nH]c(=O)cc1Nc1ccc(I)cc1F [Example 19, 4-(2-Fluoro-4-iodoanilino)-6-oxo-1,6-dihydro-3-pyridinecarboxamide] |
| 0.63 | – | 214 to 216 | Cn1cc(C(N)=O)c(Nc2ccc(CCCO)cc2F)cc1=O [Example 21, 4-[2-Fluoro-4-(3-hydroxypropyl)anilino}-1-methyl-6-oxo-1,6-dihydro-3-pyridinecarboxamide] |
| 0.43 | – | 215 to 217 | C=CCn1cc(C(N)=O)c(Nc2ccc(I)cc2F)cc1=O [Example 30, 1-Allyl-4-(2-fluoro-4-iodoanilino)-6-oxo-1,6-dihydro-3-pyridinecarboxamide] |
| 0.12 | – | 282 to 284 | Cn1cc(C(N)=O)c(Nc2ccc(Br)cc2F)cc1=O [Example 40, 4-(4-Bromo-2-fluoroanilino)-1-methyl-6-oxo-1,6-dihydro-3-pyridinecarboxamide] |
| 0.093 | – | 78 to 83 | Cn1cc(C(=O)NCCCO)c(Nc2ccc3ccccc3c2)cc1=O [Example 42, N-(3-Hydroxypropyl)-1-methyl-4-(2-naphthylamino)-6-oxo-1,6-dihydro-3-pyridinecarboxamide] |
| 3.9 | – | 141 to 143 | CCOC(=O)c1cn(C)c(=O)cc1Nc1ccc2c(c1)CCC2 [Example 58, 4-(Indan-5-ylamino)-1-methyl-6-oxo-1,6-dihydro-pyridine-3-carboxylic acid ethyl ester] |
| 0.15 | – | – | CSc1ccc(Nc2cc(=O)n(C)cc2C(=O)NCCCO)c(F)c1 [Example 85, 4-(2-Fluoro-4-methylsulfanyl-phenylamino)-1-methyl-6-oxo-1,6-dihydro-pyridine-3-carboxylic acid (3-hydroxy-propyl)-amide] |
| > 1 | – | – | CSc1ccc(Nc2cc(=O)n(C)cc2-c2nnc(NC(CO)CO)o2)c(F)c1 [Example 91, 4-(2-Fluoro-4-methylsulfanyl-phenylamino)-5-[5-(2-hydroxy-1-hydroxymethyl-ethylamino)-[1,3,4]oxadiazol-2-yl]-1-methyl-1H-pyridin-2-one] |
| 1.24 | – | – | CSc1ccc(Nc2cc(=O)n(C)cc2-c2nnc(NCC(O)CO)o2)c(F)c1 (stereo not shown) [Example 92, 5-[5-(2,3-dihydroxy-propylamino)-[1,3,4]oxadiazol-2-yl]-4-(2-fluoro-4-methylsulfanyl-phenylamino)-1-methyl-1H-pyridine-2-one] |
